From US5449684A (priority 1993, dated 1995)
Converted amounts (≈) assume the structure as drawn.

Legend:
Type in all cases: cell-based
[1] = test system: human lung carcinoma A-549; test: in vitro antitumour activity in cell cultures of human lung carcinoma A-549; details: A549, A-549 cell culture
Experimental: (§1) The antitumour activities of Mycaperoxide A and Mycaperoxide B have been determined "in vitro" in cell cultures of mouse leukemia P-388, human lung carcinoma A-549 and human colon carcinoma HT-29. The procedure was carried out using the method described by Raymond J. Bergeron et al. Biochem Bioph. Res. Comm. 1984, 121(3), 848-854 and by Alan C Shroeder et al. J. Med. Chem. 1981, 24 1078-1083.

[2] = test system: VSV (Vesicular stomatitis virus); test: microbe, parasite or virus in culture; details: read-out: IC50 VSV
[3] = test system: human colon carcinoma HT-29; test: in vitro antitumour activity in cell cultures of human colon carcinoma HT-29; details: HT-29 cell culture
Experimental: as §1

[4] = test system: mouse leukemia P-388; test: in vitro antitumour activity in cell cultures of mouse leukemia P-388; details: P388, P-388 cell culture
Experimental: as §1

SMILES: CC(C(=O)O)C1CCC(C)(CCC2(C)C(C)CCC3C(C)(C)CCCC32O)OO1 (centres unmarked) [Mycaperoxide A, mycaperoxide A]
- IC50 [1]: 0.5 µg/mL (≈ 1.22 µM)
- IC50 [2]: 2 µg/mL (≈ 4.87 µM)
- IC50 [3]: 0.5 µg/mL (≈ 1.22 µM)
- IC50 [4]: 0.5 µg/mL (≈ 1.22 µM)

SMILES: CC(C(=O)O)C1CCC(C)(CCC2(O)C(C)CCC3C(C)(C)CCCC32C)OO1 (centres unmarked) [Mycaperoxide B, mycaperoxide B]
- IC50 [1]: 1 µg/mL (≈ 2.44 µM)
- IC50 [2]: 4 µg/mL (≈ 9.74 µM)
- IC50 [3]: 1 µg/mL (≈ 2.44 µM)
- IC50 [4]: 1 µg/mL (≈ 2.44 µM)
